In publication PMC11117721, “A Fast-Binding, Functionally Reversible, COX-2 Radiotracer for CNS PET Imaging” (ACS Central Science, 2024):

Target: T1, COX-2 (Mus musculus, UniProt Q05769)
T1 construct: from tissue; host or cells: brain of living wild-type mice (Strain C57BL/6J)
T1 sequence (Q05769 18-604): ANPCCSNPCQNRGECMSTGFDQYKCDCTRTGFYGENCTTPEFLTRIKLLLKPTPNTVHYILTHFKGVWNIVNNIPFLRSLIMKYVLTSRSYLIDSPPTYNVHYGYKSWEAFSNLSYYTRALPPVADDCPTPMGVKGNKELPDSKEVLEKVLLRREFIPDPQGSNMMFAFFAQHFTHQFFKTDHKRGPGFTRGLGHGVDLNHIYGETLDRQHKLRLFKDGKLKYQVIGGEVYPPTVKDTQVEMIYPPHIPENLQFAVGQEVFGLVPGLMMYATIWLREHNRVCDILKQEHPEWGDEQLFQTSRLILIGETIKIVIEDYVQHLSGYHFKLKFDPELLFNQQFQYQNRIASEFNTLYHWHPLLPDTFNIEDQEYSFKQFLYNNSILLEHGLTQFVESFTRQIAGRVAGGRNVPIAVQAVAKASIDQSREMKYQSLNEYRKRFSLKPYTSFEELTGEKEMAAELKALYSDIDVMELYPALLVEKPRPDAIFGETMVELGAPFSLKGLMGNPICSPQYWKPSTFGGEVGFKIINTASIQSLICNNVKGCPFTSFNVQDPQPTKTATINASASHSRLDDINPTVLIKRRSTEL
Assay: PET imaging of wild-type mice (controls)
Assay type: in vivo
Settings: WT mice (n = 4)
Source text: We performed additional validation of [^11C]BRD1158 through in vivo PET imaging of an hCOX-2 transgenic mouse line (Figure 3), which overexpressed human COX-2 primarily in neurons (Strain No. 010703, Jackson Laboratories). […] While we did perform contralateral sham (control virus) injections in the AAV rats to assess potential injection confounds, as COX-2 is part of the injury and inflammation response, it was important to validate in a model naïve to brain insult to mitigate how aspects of the AAV rat experimental design could have misled our interpretations of tracer specific binding.
In accordance with Massachusetts General Hospital Institutional Animal Care and Use Committee (IACUC) protocols, Sprague Dawley rats (300-500g, Charles River Laboratories), wildtype mice (Strain C57BL/6J), and human Thy-1-COX-2 transgenic line 303 mice (Strain 010703, Jackson Laboratories) were used in these studies. All animals were housed in a standard animal facility with access to conventional rodent food and water ad libitum and a 12 -hour day/night schedule. All animals were allowed to acclimate before any experime ntal procedures. Only male animals were used for imaging experiments .
Animals were induced under anesthesia using 1 -3% isoflurane in a carrier of 1.0 -1.5 L/min oxygen.
Maintenance of isoflurane depended on procedure and species, rats 2 -3% and mice 1-2%. Rats undergoing surgeries had higher isoflurane maintenance at 3 -4%. After induction, the animals’ body temperatures were regulated using a support heating pad or fan throughout all experiments.
Respiratory rates and body temperature were monitored through all imaging and surgical procedures, generally using a respiratory pad and rectal probe. Injections were made through the lateral tail vein.
Rats were cannulated with an IV extension using a 60 in, 0.3 mL volume IV extender (Smith Medical) and a 24 ga x 0.75 in IV catheter (McKesson). Mice were cannulated with Intramedic PE10 tubing (BD […]
Group 2 animals then […]

- SUV Average (9–21 min) (cerebellum): 0.376 ± 0.02
- SUV Average (9–21 min) (cortex): 0.359 ± 0.04
- SUV Average (9–21 min) (striatum): 0.385 ± 0.05
Compound: [11CH3]S(=O)(=O)c1ccc(-c2cccc(NCc3ccoc3)n2)cc1 [[^11C]BRD1158]
